Here are results for two compounds from patent US20110129508A1 (priority 2008, published 2011).

Data set [1] concerns streptozotocin-induced diabetic neuropathy model of neuropathic pain. The conditions noted are these: rat, in vivo; for maximum non-sedating dose / reduction in hyperalgesia: iv.
The conditions of data set [2]: in vivo; cited from earlier work.
In data set [3] the test system is rat model of diabetic neuropathic pain. More on the design: species or system rats. The note with it: in vivo.
The conditions of data set [4]: rat, in vivo; for maximum non-sedating dose: iv.
The conditions of data set [5]: dog, in vivo, iv.
Data set [6] relates to carrageenan paw inflammation model. The conditions noted are these: rat, in vivo.
Data set [7] concerns rat model of prostate bone cancer pain. The experiment in a line: animal or person. Format: in vivo, Male Wistar rats. The note with it: rat, in vivo.

Read-outs that look alike come from different tables or passages of the source.

For leconotide [CVID], in data set [1], the “efficacy compared with gabapentin or morphine alone or in combination” value is listed as “improved efficacy” and the maximum non-sedating dose is 2.0 mg/kg. In addition, in data set [1] (0.02 mg/kg), the reduction in hyperalgesia result is reported as “approximately 30%”. Further, the reduction in hyperalgesia entry in data set [1] (2 mg/kg) is “greater than 50%”. The “toxicity on intravenous administration” value in data set [2] was “less toxic than ziconotide”. For the same compound, the antinociceptive effect result in data set [3] is “dose related antinociceptive effects”. In data set [4], this compound returned a mean rest times of 982.89 s and a maximum non-sedating dose of 2 mg/kg. Besides, in data set [5], the “adverse effects on cardiovascular function” value was “no adverse effects on cardiovascular function” and the “toxicological or pathological effect” value is on record as “no toxicological or pathological effect was observed”. The “analgesic response compared to saline administration” value in data set [6] was “effective at inducing an analgesic response”. In addition, the “duration of antinociceptive responses following injection of the bolus” value in data set [6] (ip) is 4 to 6 h. Besides, in data set [7], the “reversal of the hyperalgesia caused by intratibial prostate bone cancer (FIG. 7)” value is on record as “small, statistically non-significant reversal”. Besides, the antinociceptive effects result in data set [7] (iv) was “no significant antinociceptive effects”.

On to `CSCC[C@@H]1NC(=O)[C@H](CC(C)C)NC(=O)[C@H](CCCNC(=N)N)NC(=O)[C@H](CO)NC(=O)[C@@H]2CSSC[C@@H]3NC(=O)[C@H](CO)NC(=O)CNC(=O)[C@H]([C@@H](C)O)NC(=O)[C@H](CSSC[C@H](N)C(=O)N[C@@H](CCCCN)C(=O)NCC(=O)N[C@@H](CCCCN)C(=O)NCC(=O)N[C@@H](C)C(=O)N[C@@H](CCCCN)C(=O)N2)NC(=O)[C@H](CSSC[C@@H](C(N)=O)NC(=O)[C@H](CCCCN)NC(=O)CNC(=O)[C@H](CO)NC(=O)[C@H](CCCNC(=N)N)NC3=O)NC(=O)[C@H](CC(=O)O)NC(=O)[C@H](Cc2ccc(O)cc2)NC1=O` [MVIIA, ziconotide], for which the maximum non-sedating dose in data set [1] and in data set [4] was 0.02 mg/kg in each case.
